Assay results from US6033891A, “Nucleic acids encoding polypeptides having cellobiose dehydrogenase activity” (Novo Nordisk Biotech, Inc., priority 1999, dated 2000).
Where two headings read alike, the source gives them in different places.

Target: T1, Humicola insolens cellobiose dehydrogenase, wild type (major form, 92 kDa, pI 4.0, purified from CELLUZYME), SEQ ID NO:2 (Mycothermus thermophilus, UniProt Q9P8H5)
T1 construct: mature 22-785 after 21-residue signal peptide
T1 sequence (Q9P8H5 22-785): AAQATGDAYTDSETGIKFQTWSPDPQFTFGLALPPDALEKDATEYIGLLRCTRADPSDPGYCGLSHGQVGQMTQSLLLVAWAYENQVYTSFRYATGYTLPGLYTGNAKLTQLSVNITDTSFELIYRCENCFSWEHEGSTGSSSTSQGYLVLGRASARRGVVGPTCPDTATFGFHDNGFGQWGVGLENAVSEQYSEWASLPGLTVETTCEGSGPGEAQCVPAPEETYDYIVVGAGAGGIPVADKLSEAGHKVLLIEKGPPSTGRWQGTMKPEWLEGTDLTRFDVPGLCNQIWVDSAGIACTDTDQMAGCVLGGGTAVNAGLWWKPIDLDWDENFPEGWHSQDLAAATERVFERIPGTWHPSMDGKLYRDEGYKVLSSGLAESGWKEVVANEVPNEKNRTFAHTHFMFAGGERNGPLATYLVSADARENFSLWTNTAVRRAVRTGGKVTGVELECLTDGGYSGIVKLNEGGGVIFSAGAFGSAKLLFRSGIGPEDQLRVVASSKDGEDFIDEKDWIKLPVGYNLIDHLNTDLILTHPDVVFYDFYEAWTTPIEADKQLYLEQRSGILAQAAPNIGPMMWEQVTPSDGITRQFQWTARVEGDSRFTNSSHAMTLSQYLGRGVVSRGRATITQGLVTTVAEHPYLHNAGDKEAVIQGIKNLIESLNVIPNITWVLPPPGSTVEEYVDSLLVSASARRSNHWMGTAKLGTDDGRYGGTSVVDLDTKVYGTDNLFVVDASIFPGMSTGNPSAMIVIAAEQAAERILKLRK
Experiment: Steady-state kinetics of cellobiose dehydrogenase with electron donors and acceptors (Lineweaver-Burke plots)
Format: biochemical
Conditions: 0.1 M sodium phosphate pH 7.5, 40° C.; for kcat (electron donor sugar) / kcat (electron acceptor): mol of oxidized cellobiose/s/mol of enzyme
Description: All absorption spectra and kinetic measurements were recorded on a Hewlett-Packard 8452A Diode Array Spectrophotometer in 0.75 ml black cuvettes with 1 cm optical path. The fluorescence spectra were recorded on a PERKIN ELMER LS 50.
Potassium ferricyanide (Merck): ε420 =970 M^-1.cm^-1, 3,5-di-tert-butyl-1,2-benzoquinone (Merck): ε410 =1,400 M^-1.cm^-1, Methylene Blue (Merck): ε610 =42,000 M^-1.cm^-1, cytochrome c (Sigma, from horse heart): ε550 =8,000 M^-1.cm^-1.
All measurements were performed in 0.1 M sodium phosphate pH 7.5 buffer at 40° C. […] The reactions were monitored for 400 s as changes in absorbance at the appropriate wavelength (see above). The benzoquinone was dissolved in ethanol to a concentration of 10 mM and diluted in phosphate buffer to the appropriate concentration. The catalytic constants (kcat) were expressed as mol of oxidized cellobiose/s/mol of enzyme. One equivalent of DCPIP, Methylene Blue, or benzoquinone oxidizes one equivalent of cellobiose whereas two equivalents of cytochrome c or ferricyanide oxidizes one equivalent of cellobiose. The kinetic constants were determined using Lineweaver-Burke plots and were the result of dual determinations.

[1] = sugar + 90 μM DCPIP, read-out: Km (electron donor sugar)
[2] = electron acceptor + 225 μM cellobiose
[3] = electron acceptor + 225 μM cellobiose, read-out: Km (electron acceptor)

| Compound | kcat (electron donor sugar) (sugar + 90 μM DCPIP) [s⁻¹] | Km [1] [µM] | kcat (electron acceptor) [2] [s⁻¹] | Km [3] [µM] |
| --- | --- | --- | --- | --- |
| OC[C@H]1O[C@@H](O[C@H]2[C@H](O)[C@@H](O)C(O)O[C@@H]2CO)[C@H](O)[C@@H](O)[C@@H]1O (stereo partly drawn) [Cellobiose] | 10 | 11 | – | – |
| OC[C@H]1O[C@@H](O[C@H]2[C@H](O)[C@@H](O)[C@H](O[C@H]3[C@H](O)[C@@H](O)[C@H](O[C@H]4[C@H](O)[C@@H](O)[C@H](O[C@H]5[C@H](O)[C@@H](O)C(O)O[C@@H]5CO)O[C@@H]4CO)O[C@@H]3CO)O[C@@H]2CO)[C@H](O)[C@@H](O)[C@@H]1O (stereo partly drawn) [Cellopentaose] | 8.3 | – | – | – |
| O=C1C(Cl)=CC(=Nc2ccc(O)cc2)C=C1Cl [DCPIP, 2,6-dichlorophenolindophenol] | – | – | 12 | 26 |
| OC[C@H]1OC(O)[C@H](O)[C@@H](O)[C@@H]1O (stereo partly drawn) [Glucose] | 0 | – | – | – |
| OC[C@H]1O[C@@H](O[C@H]2[C@H](O)[C@@H](O)C(O)O[C@@H]2CO)[C@H](O)[C@@H](O)[C@H]1O (stereo partly drawn) [Lactose] | 10 | 51 | – | – |
| OC[C@H]1O[C@H](O[C@H]2[C@H](O)[C@@H](O)[C@H](O)O[C@@H]2CO)[C@H](O)[C@@H](O)[C@@H]1O [Maltose] | 0.83 | 11000 | – | – |
| CN(C)c1ccc2nc3ccc(=[N+](C)C)cc-3sc2c1 [Methylene Blue] | – | – | 1.85 | 18 |
| CC(=O)N[C@H]1[C@H](O[C@H]2[C@H](O)[C@@H](NC(C)=O)C(O)O[C@@H]2CO)O[C@H](CO)[C@@H](O)[C@@H]1O (stereo partly drawn) [N,N-Diacetylchitobiose, N,N-diacetylchitobiose] | 0 | – | – | – |
| CC(=O)N[C@H]1C(O)O[C@H](CO)[C@@H](O[C@@H]2O[C@H](CO)[C@H](O)[C@H](O)[C@H]2O)[C@@H]1O (stereo partly drawn) [N-Acetyllactosamine, N-acetyllactosamine] | 0 | – | – | – |
| OC1OC[C@@H](O[C@@H]2OC[C@@H](O)[C@H](O)[C@H]2O)[C@H](O)[C@H]1O (stereo partly drawn) [Xylobiose] | 2.15 | – | – | – |
